In patent US5395611A, “Phenolic amine depigmenting and antimelanoma agents” (The Governors of the University of Alberta, priority 1992, dated 1995):
Entries after “also recorded” stand apart in the source; their conditions may differ.

What was measured:
black hair follicles = test: Depigmentation of new hair (eumelanin/PTCA content); assay type: in vivo, C57BL/6J black mice; details: for Depigmentation of new growth of black hair follicles: in words; for PTCA Content / Depigmentation: 300 mg/kg daily for 14 days, hair day 22
Procedure: Female progeny were used in this testing when approximately 8 weeks old and weighing 17 grams.
Thirty mice were randomized into 6 groups of 5 (1 control and 1 for each compound). Starting on day 1, daily for 14 days the agent was injected i.p. or was infiltrated s.c. in an area where hair follicles had been plucked; the dose was 300 mg/kg body weight.
In the same 30 mice, hair follicles were harvested on day 22 (early telogen phase) and their eumelanin content analyzed. […] Briefly, a 10-mg hair sample is homogenized in water at a concentration of 10 mg/ml; the 200-μl homogenate is transferred to a screw-capped test tube, mixed with 1M H2 SO4 (800 μL) and oxidized with 3% KMnO4. The product, pyrrole-2,3,5-tricarboxylic acid (PTCA), is analyzed by HPLC with a UVL detector; samples are measured in duplicate. The eumelanin content is expressed as PTCA (ng/mg) against the PCTA content of BALB/c albino mice as control (≤10 ng/mg, the background value with our method, in which 1 ng corresponds roughly to a eumelanin content of 50 ng), and the degree of depigmentation is expressed as a percentage: (PTCA content of control sample minus PTCA content of experimental sample)/(PCTA content of control sample)×100.

B16F10 melanoma colonies = test: Melanoma-colony formation in the lungs; assay type: in vivo, mouse
Procedure: Murine B16F10 melanoma cell line with a strong metastatic property to form tumour colonies in the lungs was obtained from Dr. Longenecker, Department of Immunology, University of Alberta. Such cell line is well recognized and readily available as reported in Miura et al, supra. The cells were grown in T-75 flasks in dulbecco's MEM available from Gipco Lab Inc., Grand Island, N.Y., supplemented with 10% fetal calf serum, also obtained from Gipco, penicillin (100 μ/ml) and streptomycin (100 μg/ml). The cells were incubated at 37° C. in humidified atmosphere of 5% CO2 in air. […] Viable cells were identified by trypan blue dye exclusion and counted. The cell suspension was diluted to the desired concentration. […] On day zero, the mice were inoculated via the lateral tail vein with 5×10^4 cells in 0.2 ml of N saline. The test drugs were dissolved in normal saline, sterilized by membrane filtration, and administered in a dose of 300 mg/Kg (4 -S-CAP) or 900 mg/Kg (N-Ac-4-S-CAP); starting on day five, the control solution or drug was injected i.p. daily for 14 days. On day 26, the mice were killed by cervical dislocation, their lungs were removed, and the number of melanoma colonies was counted under a dissecting microscope. The results were expressed as percentage reduction in the number of colonies: [a-b/a]×100, where a=colonies in control group and b=colonies in experimental group.

melanocytes = test: Light and electron microscopy of follicular melanocytes; assay type: in vivo, mice; details: for Cytotoxicity for follicular depigmentation: conclusion in words; for Electron microscopy of melanocytes/melanosomes: 10 days
Procedure: In […] of 4 mice (1 control and 1 for each compound) were treated daily with the control or compound injected i.p. The compounds tested were 4-S-CAP, N-Ac-4-S-CAP and α-Me-4-S-CAP. Samples of skin and regrowing hair follicles were excised under brief general anaesthesia on day 10 (late anagen phase), fixed in Karnovsky's solution (2.5% glutaraldehyde and 2.5% paraformaldehyde in 011M cacodylate buffer), and refixed in 1% osmium tetroxide in cadodylate buffer. Tissues were stained en bloc with 1.5% uranyl acetate in o.1M veronal buffer for 30 min, dehydrated in graded ethanol solutions, embedded in epoxy resin, and sectioned with a Potter-Blum ultramicrotome MT II. Sections 1.0 μm thick were stained with methylene blue for light microscopy, thin sections were stained with led citrate for electron microscopy.

[1] = Urinary excretion after i.p. injection (metabolic assay); assay type: in vivo, mice
Procedure: Fifteen mice randomly divided into three groups of five were injected i.p. with a test agent (300 mg/kg) dissolved in N saline solution. Group 1 were injected with 4-S-CAP, group 2 with N-Ac-4-S-CAP, group 3 were controls. The mice are kept in metabolic cages; their urine is collected 3, 8 and 24 hr after injection, and the 4-S-CAP and N-Ac-4-S-CAP content is measured by HPLC in a system consisting of a Waters 600E liquid chromatography, with a Bondapak C18 column (3.0×300 mm; particle size, 10 μm) and a Waters 460 electrochemical detector. Mobile phase: 0.1M potassium phosphate buffer, pH 2.1, containing 0.1 mM Na2 EDTA methanol, 80:20 (v/v); column temperature, 60° C.; flow rate 1.0 ml/min. Urine samples are hydrolysed with 0.1M HCl before assay, and the phenols are detected at 850 mV against an Ag/AgCl reference electrode.

B16 melanoma = test: In vivo growth inhibition of s.c. inoculated B16 melanoma; parameters: species or system mouse
Procedure: Briefly, excised tumours were homogenized in normal saline.
The in vivo antimelanoma effect of the compounds were evaluated by percent growth inhibition of inoculated tumour (% g.i.). The percent g.i. was computed from the mean tumour volume at day 12 or 13 of the experiments; i.e., 100× (1- treated group/control group). Tumour volume was calculated by the following formula:
tumour volume=long axis×(short axis)^2 ×1/2.

mushroom tyrosinase = test: Enzyme kinetics for tyrosinase; assay type: biochemical; details: in words
Procedure: (§1) Mushroom tyrosinase (400 units/mg) and plasma MAO (1000 units/gm) were obtained from Sigma Chemical Co. (St. Louis, Mo., USA). A reaction mixture consisted of a substrate of 7 to 8 different concentrations (40 to 500 μM for mushroom tyrosinase and 20 to 200 μM for MAO) and of either mushroom tyrosinase (2.5 μg) or MAO (10 μg) in 1.0 mL of 0.05M sodium phosphate buffer, pH 6.8 and 7.4 respectively. The reactions were carried out at 37° C. in a shaking water bath, and stopped by taking 100 μL of the reaction mixture and adding it to 900 μL of 0.4M HCLO4. The disappearance of substrate was followed using HPLC (high pressure liquid chromatography) Km and Vmax values were calculated from the Lineweaver-Burk plots.
^a mushroom tyrosinase; 11 unit/ml of tyrosinase was used. One enzyme
unit will cause an increase in A280 of 0.001 per min at pH 6.8 at
25° C. using Ltyrosine as substrate.

in vivo = details: mouse
Procedure: 3:1-85 1972. In accordance with this Protocol, ten to fifteen mice were used in each test group. They were weighed and randomized at day one after s.c. inoculation of B16 melanoma cells. From day five, the phenolic melanin precursors were administered i.p. daily for nine days. The test compounds were dissolved in normal saline, and sterilized by heating to 100° C. for 2 minutes. […] They were administered j.p. with the following doses: 400 mg/Kg - 4-S-CAP; 200 to 300 mg/Kg - 4-S-CAP; and 200 to 1200 mg/Kg - N-Ac-4-S-CAP. A catalytic amount of L-dopa, 25 mg/Kg and antidecarboxylase, carbidopa, 400 mg/Kg, were also administered. Carbidopa was given one hour prior to L-dopa administration. DTIC (NSC 4538) was used as a control drug at a dose of 60 mg/Kg. Acute toxicity of 4-S-CP and 4-S-CAP was evaluated from 100 to 1600 mg/Kg.
The B16 mouse melanoma was maintained by s.c. inoculation of tumour cells into the back of C57BL7J mice (5 to 6 weeks, female). […] Briefly, excised tumours were homogenized in normal saline. The homogenized tumour cells were then passed through a sterile 80 mesh stainless steel screen, washed with normal saline, centrifuged (500 g. for 10 minutes) and resuspended in normal saline. Suspensions of viable melanoma cells at the concentration of 1×10^6 per 0.1 ml were inoculated s.c. into both the right and left inguinal areas of C57BL/6J mice (female, 5 to 6 weeks old, 18 to 20 gm).

[2] = tested on: plasma monoamine oxidase (MAO); test: Enzyme kinetics for monoamineoxidase (plasma MAO); assay type: biochemical; details: in words
Procedure: as §1

melanoma = details: in words; cited from earlier work
[3] = acute toxicity, evaluated 100 to 1600 mg/Kg (Miura et al); cited from earlier work
follicular melanocytes = details: in words; cited from earlier work
[4] = hydroquinone preparations; cited from earlier work
skin = details: cited from earlier work

## NCCCSc1ccc(O)cc1 [4-S-HomoCAP]
Black hair follicles
  Depigmentation of new growth of black hair follicles: much more depigmentation when given s.c. than i.p.
Black hair follicles; s.c.
  PTCA Content: 397.7 ± 279.3 ng/mg

## CC(=O)NCCSc1ccc(O)cc1 [N-Ac-4-S-CAP, N-ACETYL-4-S-CYSTEAMINYLPHENOL]
B16F10 melanoma colonies; 900 mg/kg i.p. daily for 14 days, day 26
  Colonies, % control: 24.9%
B16F10 melanoma colonies; in words
  Number of B16F10 melanoma colonies: significantly reduced
B16F10 melanoma colonies; summary statement
  Melanoma lung colonies reduced to % of original volume: 25%
Black hair follicles
  Depigmentation of new growth of black hair follicles: most marked; also recorded: no statistically significant difference in melanin content between hair follicles with N-Ac-4-S-CAP and control albino mice
melanocytes
  Cytotoxicity for follicular depigmentation: greatest cytotoxicity for follicular depigmentation
melanocytes; i.p.
  Electron microscopy of melanocytes/melanosomes: no melanocytes or melanosomes were visible
melanocytes; i.p., day 10
  Light microscopy of hair follicles: neither functioning melanocytes nor melanin pigments remained in the follicles
[1]; 3 h after i.p. injection, 5.2 mg/mouse, unit printed ng
  Urinary excretion of unchanged compound, amount: 7.23e-07 ± 2.7e-08 mg
[1]; 8 h after i.p. injection, 5.2 mg/mouse
  Urinary excretion of unchanged compound, amount: 1.034 ± 0.033 mg
[1]; 24 h after i.p. injection, 5.2 mg/mouse
  Urinary excretion of unchanged compound, amount: 1.089 ± 0.028 mg
[1]; urine, i.p. injection
  i.p. dose excreted as 4-S-CAP, amount: 0.066 ± 0.003 mg
[1]; urine, ip, 300 mg/kg, 3 h after i.p. injection, 5.2 mg/mouse, read-out: Urinary excretion of unchanged compound, % of dose
  dose excreted at 3 h: 13.9%
[1]; urine, ip, 300 mg/kg, 8 h after i.p. injection, 5.2 mg/mouse, read-out: Urinary excretion of unchanged compound, % of dose
  dose excreted at 8 h: 19.8%
[1]; urine, ip, 300 mg/kg, 24 h after i.p. injection, 5.2 mg/mouse, read-out: Urinary excretion of unchanged compound, % of dose
  dose excreted at 24 h: 20.4%
B16 melanoma; Experiment I, 200 mg/Kg
  % Gi (growth inhibition): 39.8%
B16 melanoma; Experiment I, 400 mg/Kg
  % Gi (growth inhibition): 57.3%
B16 melanoma; Experiment I, 600 mg/Kg
  % Gi (growth inhibition): 63.18%
B16 melanoma; Experiment I, 800 mg/Kg
  % Gi (growth inhibition): 74.4%
B16 melanoma; Experiment II, 200 mg/Kg
  % Gi (growth inhibition): 32.0%
  Tumour Volume: 370 ± 37 mm^3
B16 melanoma; Experiment II, 400 mg/Kg
  % Gi (growth inhibition): 34.0%
B16 melanoma; Experiment II, 800 mg/Kg
  % Gi (growth inhibition): 63.4%
B16 melanoma; Experiment II, 1200 mg/Kg
  % Gi (growth inhibition): 70.7%
B16 melanoma; in words
  Growth inhibition of B16 melanoma: dose-dependent linear growth inhibition; also recorded: significant reduction in size of s.c. inoculated melanoma
Mushroom tyrosinase
  Substrate for tyrosinase: tyrosinase substrate
In vivo
  Single dose toxicity level: ~1,400 mg/kg of body weight
In vivo; ip
  LD50: ≤ 1400 mg/kg
  MTD: 1200 mg/kg
[2]
  Substrate for plasma MAO: not, however, a substrate for plasma MAO

## CC(N)CSc1ccc(O)cc1 (stereo not drawn) [α-Me-4-S-CAP]
Black hair follicles; i.p., 300 mg/kg
  Depigmentation: 89%
Black hair follicles
  Depigmentation of new growth of black hair follicles: i.p. administration induced more depigmentation than s.c.
Black hair follicles; s.c. administration, plucked area
  Irritation of the skin: some irritation of the skin in the plucked area
Black hair follicles; s.c., 300 mg/kg
  Depigmentation: 58%
melanocytes
  Cytotoxicity for follicular depigmentation: greatest cytotoxicity for follicular depigmentation
melanocytes; i.p.
  Electron microscopy of melanocytes/melanosomes: contained immature melanosomes at stages II and III
In vivo
  Single dose toxicity level: ~500 mg/kg of body weight

## COC(=O)C(N)CSc1ccc(O)cc1 (stereo not drawn) [methyl ester of 4-S-CP]
melanoma
  Inhibition of melanoma growth: some inhibition of melanoma growth, although not as active as the 4-S-CAP

## CN(C)CCSc1ccc(O)cc1 [N,N-DiMe-4-S-CAP]
Black hair follicles; i.p.
  Depigmentation: 7.3%
  PTCA Content: 1009.0 ± 193.5 ng/mg
Black hair follicles
  Depigmentation of new growth of black hair follicles: the lowest; also recorded: no significant depigmentation
Black hair follicles; listed as N,N-Di-Me-4-S-CAP
  Depigmentation of new growth of black hair follicles: no visible changes in pigmentation in new follicles
Black hair follicles; s.c.
  Depigmentation: 6.1%
  PTCA Content: 1023.4 ± 110.1 ng/mg

## NC(CSc1ccc(O)cc1)C(=O)O (stereo not drawn) [4-S-CP, 4-S-cysteinylphenol]
melanoma
  Inhibition of melanoma growth: some inhibition of melanoma growth, although not as active as the 4-S-CAP
[3]
  Lethal dose: 600 mg/kg
Follicular melanocytes
  Effect on black hair follicles / black hair: depigmentation of black hair as manifested by loss of functioning melanocytes

## Oc1ccc(O)cc1 [hydroquinone]
[4]
  Stability: very unstable
skin; hydroquinone preparations
  Skin irritation: cause skin irritation
skin; prolonged period and high concentration
  Permanent whitening of the skin: can also cause permanent whitening of the skin
